pIC50: −log10 of the molar value.
Test system: Ba/F3 ERBB2 YVMA
Assay: Cell viability assay (CellTiter Glo), Ba/F3 cells engineered to express ERBB2 YVMA
Assay type: cell-based
Settings: Mus musculus, BaF3, 72 h, Ba/F3 cells expressing human ERBB2 YVMA mutant; 72 hours; cell viability, CellTiter Glo; read-out: Ba/F3 ERBB2 YVMA, IC50
Procedure: Cells were treated with compounds, and cell viability was measured as a metric of kinase inhibition.
BT-474, A431, MDA-MB-175VII, NCI-H1781, MCF7, and Ba/F3 cell lines were tested. The Ba/F3 cell line is IL-3-dependent mouse cell line derived from the C3H mouse strain. Ba/F3 cell lines were engineered to express human ERBB2 or EGFR kinases, rendering the cells IL-3 independent. The lines were generated via retroviral transduction utilizing a Moloney murine leukemia virus (MMLV) promoter, and constructs are stably integrated into the cell genome. The sequences of the ERBB2 and EGFR genes used were NCBI Reference Sequences NM 004448.3 and NM 005228.3, respectively.
BT-474, A431, MDA-MB-175VII, NCI-H1781 and MCF7 cells were grown in the appropriate growth medium as described in Table B2 below, and harvested at 50-80% confluence. BT-474, A431, MDA-MB-175VII, NCI-H1781 and MCF7 cells were counted and seeded at 2,000 or 1,500 cells per well in 384-well tissue culture plates (see Table B2). Similarly, Ba/F3 cell lines engineered to express EGFR, ERBB2, or ERBB2 mutants were grown, harvested, counted and seeded at 3000 cells per well in 96-well plates. A subset of wells contained media only (low control, “LC”).
Table B1 provides the growth media and number of cells seeded per well for the each cell line.
Compounds were dissolved in DMSO and serially diluted. Serially-diluted compound or a DMSO only control (high control, “HC”) was added to the plated cells in each well. Compounds were tested at concentrations of about 10 μM to 0.51 nM, using three-fold dilutions. The final proportion of DMSO never exceeded 0.1%.
Plates were placed in a 37° C., 5% CO2 incubator for 72 hours. Plates were then removed from the incubator and equilibrated for 15 minutes at room temperature. […] of CellTiter Glo reagent (Promega) was added to measure the relative level of metabolically active cells by quantifying intracellular ATP concentrations. Plates were incubated for 30 minutes at room temperature, and luminescence was measured. Percent viability was normalized to a vehicle control only using the following formula: % viability=100×(Lumsample−LumLC)/(LumHC−LumLC). Graphical curves were fitted using a nonlinear regression model with a sigmoidal dose response.

pIC50 | Compound
7.71 | Cc1cc(Nc2ncnc3cc4c(nc23)N2CCN(C(=O)/C=C/[C@@H](C)N(C)C)[C@H](CO4)C2)ccc1Oc1ccn2ncnc2c1 [Compound 29, (4R,E)-1-((10S)-4-((4-([1,2,4]triazolo[1,5-a]pyridin-7-yloxy)-3-methylphenyl)amino)-7,8,10,11-tetrahydro-9H-6,10-methanopyrimido[4′,5′:5,6]pyrido[3,2-b][1,4,7]oxadiazonin-9-yl)-4-(dimethylamino)pent-2-en-1-one]
7.42 | CC#CC(=O)N1CCN2C[C@H]1COc1cc3ncnc(Nc4ccc(Oc5ccc6c(c5)ncn6C)c(C)c4)c3cc12 [Compound 11]
7.42 | CNC/C=C/C(=O)N1CCN2C[C@H]1COc1cc3ncnc(Nc4cc(C)c(Oc5ccn6ncnc6c5)cc4F)c3nc12 [Compound 49, (E)-1-((10S)-4-((4-([1,2,4]triazolo[1,5-a]pyridin-7-yloxy)-2-fluoro-5-methylphenyl)amino)-7,8,10,11-tetrahydro-9H-6,10-methanopyrimido[4′,5′:5,6]pyrido[3,2-b][1,4,7]oxadiazonin-9-yl)-4-(methylamino)but-2-en-1-one]
7.10 | Cc1cc(Nc2ncnc3cc4c(cc23)N2CCN(C(=O)/C=C/CN(C)C)[C@H](CO4)C2)ccc1Oc1ccc2c(c1)ncn2C [Compound 7, (E)-4-(dimethylamino)-1-((10S)-4-((3-methyl-4-((1-methyl-1H-benzo[d]imidazol-5-yl)oxy)phenyl)amino)-7,8,10,11-tetrahydro-9H-6,10-methano[1,4,7]oxadiazonino[3,2-g]quinazolin-9-yl)but-2-en-1-one]
7.97 | Cc1cc(Nc2ncnc3cc4c(nc23)N2CCN(C(=O)/C=C/[C@H]3CCCN3C)[C@H](CO4)C2)ccc1Oc1ccn2ncnc2c1 [Compound 27, (E)-1-((10S)-4-((4-([1,2,4]triazolo[1,5-a]pyridin-7-yloxy)-3-methylphenyl)amino)-7,8,10,11-tetrahydro-9H-6,10-methanopyrimido[4′,5′:5,6]pyrido[3,2-b][1,4,7]oxadiazonin-9-yl)-3-((R)-1-methylpyrrolidin-2-yl)prop-2-en-1-one]
7.70 | CN(C)C/C=C/C(=O)N1CCN2C[C@H]1COc1cc3ncnc(Nc4ccc(Oc5ccn6ncnc6c5)cc4)c3nc12 [Compound 31, (E)-1-((10S)-4-((4-([1,2,4]triazolo[1,5-a]pyridin-7-yloxy)phenyl)amino)-7,8,10,11-tetrahydro-9H-6,10-methanopyrimido[4′,5′:5,6]pyrido[3,2-b][1,4,7]oxadiazonin-9-yl)-4-(dimethylamino)but-2-en-1-one]
7.08 | Cc1cc(Nc2ncnc3cc4c(nc23)N2CCN(C(=O)/C=C/CN(C)C)[C@@H](CO4)C2)ccc1Oc1ccn2ncnc2c1 [Compound 15, (E)-1-((10R)-4-((4-([1,2,4]triazolo[1,5-a]pyridin-7-yloxy)-3-methylphenyl)amino)-7,8,10,11-tetrahydro-9H-6,10-methanopyrimido[4′,5′:5,6]pyrido[3,2-b][1,4,7]oxadiazonin-9-yl)-4-(dimethylamino)but-2-en-1-one]
6.93 | Cc1cc(Nc2ncnc3cc4c(nc23)N2CCN(C(=O)/C=C/C3(F)CN(C)C3)[C@H](CO4)C2)ccc1Oc1ccn2ncnc2c1 [Compound 53, (E)-1-((10S)-4-((4-([1,2,4]triazolo[1,5-a]pyridin-7-yloxy)-3-methylphenyl)amino)-7,8,10,11-tetrahydro-9H-6,10-methanopyrimido[4′,5′:5,6]pyrido[3,2-b][1,4,7]oxadiazonin-9-yl)-3-(3-fluoro-1-methylazetidin-3-yl)prop-2-en-1-one]
7.36 | CC#CC(=O)N1CCN2C[C@H]1COc1cc3ncnc(Nc4ccc(Oc5ccn6ncnc6c5)c(C)c4)c3cc12 [Compound 12, 1-((10S)-4-((4-([1,2,4]triazolo[1,5-a]pyridin-7-yloxy)-3-methylphenyl)amino)-7,8,10,11-tetrahydro-9H-6,10-methano[1,4,7]oxadiazonino[3,2-g]quinazolin-9-yl)but-2-yn-1-one]
8.16 | Cc1cc(Nc2ncnc3cc4c(nc23)N2CCN(C(=O)/C=C/[C@@H]3CCCN3C)[C@H](CO4)C2)ccc1Oc1ccn2ncnc2c1 [Compound 28, (E)-1-((10S)-4-((4-([1,2,4]triazolo[1,5-a]pyridin-7-yloxy)-3-methylphenyl)amino)-7,8,10,11-tetrahydro-9H-6,10-methanopyrimido[4′,5′:5,6]pyrido[3,2-b][1,4,7]oxadiazonin-9-yl)-3-((S)-1-methylpyrrolidin-2-yl)prop-2-en-1-one]
8.89 | Cc1c(Oc2ccn3ncnc3c2)ccc(Nc2ncnc3cc4c(nc23)N2CCN(C(=O)/C=C/CN(C)C)[C@H](CO4)C2)c1F [Compound 35, (E)-1-((10S)-4-((4-([1,2,4]triazolo[1,5-a]pyridin-7-yloxy)-2-fluoro-3-methylphenyl)amino)-7,8,10,11-tetrahydro-9H-6,10-methanopyrimido[4′,5′:5,6]pyrido[3,2-b][1,4,7]oxadiazonin-9-yl)-4-(dimethylamino)but-2-en-1-one]
7.80 | Cc1cc(Nc2ncnc3cc4c(nc23)N2CCN(C(=O)/C=C/CN(C)C)[C@H](CO4)C2)ccc1Oc1ccc2c(c1)ncn2C [Compound 6, (E)-4-(dimethylamino)-1-((10S)-4-((3-methyl-4-((1-methyl-1H-benzo[d]imidazol-5-yl)oxy)phenyl)amino)-7,8,10,11-tetrahydro-9H-6,10-methanopyrimido[4′,5′: 5,6]pyrido[3,2-b][1,4,7]oxadiazonin-9-yl)but-2-en-1-one]
8.34 | CN(C)C/C=C/C(=O)N1CCN2C[C@H]1COc1cc3ncnc(Nc4ccc(Oc5ccn6ncnc6c5)c(Cl)c4)c3nc12 [Compound 32, (E)-1-((10S)-4-((4-([1,2,4]triazolo[1,5-a]pyridin-7-yloxy)-3-chlorophenyl)amino)-7,8,10,11-tetrahydro-9H-6,10-methanopyrimido[4′,5′:5,6]pyrido[3,2-b][1,4,7]oxadiazonin-9-yl)-4-(dimethylamino)but-2-en-1-one]
7.99 | CN(C)C/C=C/C(=O)N1CCN2C[C@H]1COc1cc3ncnc(Nc4ccc(Oc5ccn6ncnc6c5)cc4F)c3nc12 [Compound 42, (E)-1-((10S)-4-((4-([1,2,4]triazolo[1,5-a]pyridin-7-yloxy)-2-fluorophenyl)amino)-7,8,10,11-tetrahydro-9H-6,10-methanopyrimido[4′,5′:5,6]pyrido[3,2-b][1,4,7]oxadiazonin-9-yl)-4-(dimethylamino)but-2-en-1-one]
8.04 | Cc1cc(Nc2ncnc3cc4c(nc23)N2CCN(C(=O)/C=C/CN(C)C)[C@H](CO4)C2)c(F)cc1Oc1cncc(F)c1 [Compound 44]
7.53 | Cc1cc(Nc2ncnc3cc4c(c(F)c23)N2CCN(C(=O)/C=C/CN(C)C)[C@H](CO4)C2)ccc1Oc1ccn2ncnc2c1 [Compound 40, (E)-1-((10S)-4-((4-([1,2,4]triazolo[1,5-a]pyridin-7-yloxy)-3-methylphenyl)amino)-5-fluoro-7,8,10,11-tetrahydro-9H-6,10-methano[1,4,7]oxadiazonino[3,2-g]quinazolin-9-yl)-4-(dimethylamino)but-2-en-1-one]
7.85 | CC#CC(=O)N1CCN2C[C@H]1COc1cc3ncnc(Nc4ccc(Oc5ccc6c(c5)ncn6C)c(C)c4)c3nc12 [Compound 16, 1-((10S)-4-((3-methyl-4-((1-methyl-1H-benzo[d]imidazol-5-yl)oxy)phenyl)amino)-7,8,10,11-tetrahydro-9H-6,10-methanopyrimido[4′,5′:5,6]pyrido[3,2-b][1,4,7]oxadiazonin-9-yl)but-2-yn-1-one]
7.89 | Cc1cc(Nc2ncnc3cc4c(nc23)N2CCN(C(=O)/C=C/[C@H](C)N(C)C)[C@H](CO4)C2)c(F)cc1Oc1ccn2ncnc2c1 [Compound 47, (4S,E)-1-((10S)-4-((4-([1,2,4]triazolo[1,5-a]pyridin-7-yloxy)-2-fluoro-5-methylphenyl)amino)-7,8,10,11-tetrahydro-9H-6,10-methanopyrimido[4′,5′:5,6]pyrido[3,2-b][1,4,7]oxadiazonin-9-yl)-4-(dimethylamino)pent-2-en-1-one]

Same assay, conditions: Mus musculus, BaF3, 72 h, read-out: Ba/F3 ERBB2 YVMA, IC50, nM

Compound | IC50 [nM]
CN(C)C/C=C/C(=O)N1CCN2C[C@H]1COc1cc3ncnc(Nc4cc(F)c(Oc5ccn6ncnc6c5)cc4F)c3nc12 [Compound 48, (E)-1-((10S)-4-((4-([1,2,4]triazolo[1,5-a]pyridin-7-yloxy)-2,5-difluorophenyl)amino)-7,8,10,11-tetrahydro-9H-6,10-methanopyrimido[4′,5′:5,6]pyrido[3,2-b][1,4,7]oxadiazonin-9-yl)-4-(dimethylamino)but-2-en-1-one] | 4.85
